What was measured:
Parameters in all cases: key: “+” indicates that the compound exibits inhibitory activity; “−” indicates that low or no inhibitory activity was observed
[1] = system: HeLa cells; experiment: Non-photographic proliferation analysis (Promega Cell titer Aqueous), HeLa; assay type: cell-based; conditions: 6 concentrations tested
Experimental: (§1) A549 (ATCC# CCL-185), HeLa (ATCC# CCL-2), HCT116 (ATCC# CCL-247), and H1299 (ATCC# CRL-5803) cells were maintained in T175 flasks following the ATCC recommended media and handling procedures. Flasks reaching approximately 70% confluency were trypsinized and resuspended in RPMI media (Cell-Gro catalog number 10-040-CM) modified to contain 5% FBS, 100 ug/mlPen/Strep (Cell-Gro catalog number 30-002-CL), and 0.3 mg/ml L-Glutamine (Cell-Gro catalog number 25-003-CL). A 20,000 cells/ml solution was made for plating. Cells were plated in black Packard 96 well plates by placing 100 μl per well (2,000 cells per well).
(§2) Compounds and additional media were added 24 hours after cell plating. A compound master plate was created with concentrations 500 times greater than the final concentration added to the cells. All compound testing was done in duplicate using 6.3 fold dilutions starting with 10 mM. All outside wells (and 4 internal wells) were DMSO controls. Taxol and at least one additional control were run on all plates. Three microliters of the compound master plate were added to deep well blocks containing 750 μl of RPMI media. One hundred microliters were transferred from the compound/media deep well blocks to the plated cells resulting in a 500 fold dilution of the compounds. Cells were grown at 37° C., 5% CO2 for 48 hours.
(§3) Some cell plates were treated with Promega Cell titer Aqueous 1 kit (promega—VWR catalog number G3580). In this case, 48 hours after the test compound were added, 100 μl of media were removed and 20 μl of cell titer reagent were added to all wells. Plates were incubated at 37° C. for 45 minutes prior to absorbance reads on the Wallac plate reader at 490 nm for 0.1 sec/well.

[2] = molecular target: E3 (His-APC11/APC2-"APC") (Homo sapiens, UniProt Q9NYG5+Q9UJX6); experiment: Plate-based E3 ligase assay (APC FLAG), auto-ubiquitination; assay type: biochemical; conditions: for APC Flag 8 pt: 8 concentrations tested; for APC Flag (2 pt): 2 concentrations tested
Outline: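 His-APC11/APC2 auto-ubiquitination was run in casein-blocked nickel plates for 1 h at room temperature, with E1 at 5 ng/well, UbcH5c at 20 ng/well and APC at 100 ng/well. Buffer was 62.5 mM Tris pH 7.6, 3 mM MgCl2, 1 mM DTT, 2.5 mM ATP and Flag-ubiquitin at 100 ng/well. Detection used anti-Flag/HRP chemiluminescence, and IC50 was typically from 6 or 8 concentrations versus a DMSO control.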

[3] = system: A549 cells; experiment: Non-photographic proliferation analysis (Promega Cell titer Aqueous), A549; assay type: cell-based; conditions: 6 concentrations tested
Experimental: as §1, §2, §3

[4] = system: A549 cells; experiment: Cell proliferation assay, photographic image analysis of proliferation, apoptosis and death (PAD assay), A549; assay type: cell-based; conditions: 6 concentrations tested
Outline: (§4)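 Cells grown in RPMI with 5% FBS (2,000/well) and dosed 24 h after plating with 6.3-fold dilutions in duplicate (master plate 500× final, top 10 mM stock). After 48 h at 37 °C, cells formamide-fixed and DAPI-stained. Image analysis counted live, apoptotic and dead cells.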

[5] = system: HeLa cells; experiment: Cell proliferation assay, photographic image analysis of proliferation, apoptosis and death (PAD assay), HeLa; assay type: cell-based; conditions: 6 concentrations tested
Outline: as §4

Chain of E3 (His-APC11/APC2-"APC") (Q9NYG5 whole entry): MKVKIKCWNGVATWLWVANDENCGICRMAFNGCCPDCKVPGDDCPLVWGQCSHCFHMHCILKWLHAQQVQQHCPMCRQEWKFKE
Chain of E3 (His-APC11/APC2-"APC") (Q9UJX6 whole entry): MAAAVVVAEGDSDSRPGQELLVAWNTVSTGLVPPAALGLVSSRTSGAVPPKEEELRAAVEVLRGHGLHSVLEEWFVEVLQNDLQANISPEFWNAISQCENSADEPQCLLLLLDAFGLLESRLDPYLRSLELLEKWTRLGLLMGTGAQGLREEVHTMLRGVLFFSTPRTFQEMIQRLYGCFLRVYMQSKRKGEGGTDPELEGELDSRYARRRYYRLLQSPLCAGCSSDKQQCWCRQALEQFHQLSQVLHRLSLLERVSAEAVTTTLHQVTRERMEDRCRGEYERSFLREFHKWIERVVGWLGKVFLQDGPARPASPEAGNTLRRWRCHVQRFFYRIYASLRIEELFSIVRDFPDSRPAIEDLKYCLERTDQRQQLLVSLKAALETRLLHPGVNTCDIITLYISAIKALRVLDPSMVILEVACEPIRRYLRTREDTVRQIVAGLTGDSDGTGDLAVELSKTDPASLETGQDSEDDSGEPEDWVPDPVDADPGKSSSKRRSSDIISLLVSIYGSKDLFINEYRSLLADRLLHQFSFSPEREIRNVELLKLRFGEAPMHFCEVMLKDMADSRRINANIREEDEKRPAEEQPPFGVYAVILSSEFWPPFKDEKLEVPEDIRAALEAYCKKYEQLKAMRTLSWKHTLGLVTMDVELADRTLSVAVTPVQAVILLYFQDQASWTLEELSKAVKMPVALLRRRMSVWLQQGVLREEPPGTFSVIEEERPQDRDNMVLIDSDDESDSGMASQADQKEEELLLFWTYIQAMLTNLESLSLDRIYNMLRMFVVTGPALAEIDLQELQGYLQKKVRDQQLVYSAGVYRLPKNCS

Structure (SMILES)	Cell Titer-Aqueous, HELA 6 pt [1]	APC Flag 8 pt [2]	Cell Titer-Aqueous, A549 6 pt [3]	PAD Assay, A549 6 pt [4]	PAD Assay, HELA 6 pt [5]	APC Flag (2 pt) [2]
COc1cccc(NS(=O)(=O)c2cc(Cl)c(Oc3ccc([N+](=O)[O-])cc3Cl)c(Cl)c2)c1F [Example 166, 3,5-dichloro-4-(2-chloro-4-nitrophenoxy)-N-(2-fluoro-3-methoxyphenyl)benzene-sulfonamide]	+	+	+			
O=[N+]([O-])c1ccc(Oc2c(Cl)cc(S(=O)(=O)Nc3cccnc3)cc2Cl)c(Cl)c1 [Example 205, 3,5-dichloro-4-(2-chloro-4-nitrophenoxy)-N-pyridin-3-ylbenzenesulfonamide]	−	−	−			
N#Cc1ccc(NS(=O)(=O)c2cc(Cl)c(Oc3ccc([N+](=O)[O-])cc3Cl)c(Cl)c2)cc1 [Example 200, 3,5-dichloro-4-(2-chloro-4-nitrophenoxy)-N-(4-cyanophenyl)benzenesulfonamide]	+	+	+	+	+	
COc1ccc(NS(=O)(=O)c2cc(Cl)c(Oc3ccc([N+](=O)[O-])cc3Cl)c(Cl)c2)cc1 [Compound 208]	+	−	+	+	+	
O=[N+]([O-])c1ccc(Oc2c(Cl)cc(S(=O)(=O)Nc3cccc(-c4ccccc4)c3)cc2Cl)c(Cl)c1 [Example 179, N-biphenyl-3-yl-3,5-dichloro-4-(2-chloro-4-nitrophenoxy)benzenesulfonamide]	+	+	−			
O=[N+]([O-])c1ccc(Oc2c(Cl)cc(S(=O)(=O)NC3Cc4ccccc4C3)cc2Cl)c(Cl)c1 [Example 224, 3,5-dichloro-4-(2-chloro-4-nitrophenoxy)-N-(2,3-dihydro-1H-inden-2-yl)benzene-sulfonamide]	+		+			− (2 pt)
O=[N+]([O-])c1ccc(Oc2c(Cl)cc(S(=O)(=O)Nc3ccc4[nH]ccc4c3)cc2Cl)c(Cl)c1 [Example 174, 3,5-dichloro-4-(2-chloro-4-nitrophenoxy)-N-1H-indol-5-ylbenzenesulfonamide]	+	+	+	+	+	
COc1ccc(NS(=O)(=O)c2cc(Cl)c(Oc3ccc([N+](=O)[O-])cc3Cl)c(Cl)c2)cc1OC [Example 170, 3,5-dichloro-4-(2-chloro-4-nitrophenoxy)-N-(3,4-dimethoxyphenyl)benzenesulfonamide]	+	+	+			
O=[N+]([O-])c1ccc(Oc2c(Cl)cc(S(=O)(=O)Nc3cccnc3Cl)cc2Cl)c(Cl)c1 [Example 207, 3,5-dichloro-4-(2-chloro-4-nitrophenoxy)-N-(2-chloropyridin-3-yl)benzenesulfonamide]	+	+	+			
COc1cc(NS(=O)(=O)c2cc(Cl)c(Oc3ccc([N+](=O)[O-])cc3Cl)c(Cl)c2)c(OC)cc1Cl [Example 202, 3,5-dichloro-N-(4-chloro-2,5-dimethoxy-phenyl)-4-(2-chloro-4-nitrophenoxy)benzene-sulfonamide]	+	−	+	+	+	
COc1ccc(N(S(=O)(=O)c2cc(Cl)c(Oc3ccc([N+](=O)[O-])cc3Cl)c(Cl)c2)S(=O)(=O)c2cc(Cl)c(Oc3ccc([N+](=O)[O-])cc3Cl)c(Cl)c2)cc1Cl [Example 155, 3,5-dichloro-N-(3-chloro-4-methoxyphenyl)-4-(2-chloro-4-nitrophenoxy)-N-(1,3-dichloro-2-(2-chloro-4-nitrophenoxy)-5-sulfonylbenzene)benzenesulfonamide]	−	+	−	+		
O=[N+]([O-])c1ccc(Oc2c(Cl)cc(S(=O)(=O)Nc3cccc4c3oc3ccccc34)cc2Cl)c(Cl)c1 [Example 175, 3,5-dichloro-4-(2-chloro-4-nitrophenoxy)-N-dibenzo[b,d]furan-4-ylbenzenesulfonamide]	−	+	−			
COc1ccc(NS(=O)(=O)c2cc(Cl)c(Oc3ccc([N+](=O)[O-])cc3Cl)c(Cl)c2)c(OC)n1 [Example 206, 3,5-dichloro-4-(2-chloro-4-nitrophenoxy)-N-(2,6-dimethoxypyridin-3-yl)benzene-sulfonamide]	+	−	+			
N=C(NS(=O)(=O)c1cc(Cl)c(Oc2ccc([N+](=O)[O-])cc2Cl)c(Cl)c1)c1cccc([N+](=O)[O-])c1 [Example 210, N-{[3,5-dichloro-4-(2-chloro-4-nitro-phenoxy)phenyl]sulfonyl}-3-nitrobenzene-carboximidamide]	+	+	+	+	+	
COc1ccc(NS(=O)(=O)c2cc(Cl)c(Oc3ccc([N+](=O)[O-])cc3Cl)c(Cl)c2)cc1Cl [Example 201, 3,5-dichloro-N-(3-chloro-4-methoxyphenyl)-4-(2-chloro-4-nitrophenoxy)benzene-sulfonamide]	+	+	+	+	+	
CS(=O)(=O)c1cccc(NS(=O)(=O)c2cc(Cl)c(Oc3ccc([N+](=O)[O-])cc3Cl)c(Cl)c2)c1 [Compound 173, 3,5-dichloro-4-(2-chloro-4-nitrophenoxy)-N-[3-(methylsulfonyl)phenyl]benzenesulfonamide]	−		−	−	−	− (2 pt)
O=[N+]([O-])c1ccc(Oc2c(Cl)cc(S(=O)(=O)Nc3ncccn3)cc2Cl)c(Cl)c1 [Example 222, 3,5-dichloro-4-(2-chloro-4-nitrophenoxy)-N-pyrimidin-2-ylbenzenesulfonamide]	−	+	−			
O=[N+]([O-])c1ccc(Oc2c(Cl)cc(S(=O)(=O)NC(=S)Nc3ccc(Cl)c(Cl)c3)cc2Cl)c(Cl)c1 [Compound 148, 3,5-dichloro-4-(2-chloro-4-nitrophenoxy)-N-{[(3,4-dichlorophenyl)amino]carbothioyl}benzenesulfonamide]	−	+	−			
O=[N+]([O-])c1ccc(Oc2c(Cl)cc(S(=O)(=O)Nc3ccccc3Cl)cc2Cl)c(Cl)c1 [Example 156, 3,5-dichloro-4-(2-chloro-4-nitrophenoxy)-N-(2-chlorophenyl)benzenesulfonamide]	+	+	+		+	
CC1(C)Oc2ccc(NS(=O)(=O)c3cc(Cl)c(Oc4ccc([N+](=O)[O-])cc4Cl)c(Cl)c3)cc2NC1=O [Example 213, 3,5-dichloro-4-(2-chloro-4-nitrophenoxy)-N-(2,2-dimethyl-3-oxo-3,4-dihydro-2H-1,4-benzoxazin-6-yl)benzenesulfonamide]	+	+	+			

Reference: patent publication US7915293B2, “Ubiquitin ligase inhibitors” (Rigel Pharmaceuticals, Inc., priority 2003, dated 2011)
